Earlier results as cited in patent publication US20080175925A1, “Method and composition for the treatment of herpes virus” (priority 2007, published 2008).

Legend:
[1] = test system: Herpesvirus hominis oral stain SUE (herpesvirus h simplex-1); details: solution of 0.02% w/v
[2] = test system: Herpesvirus hominis genital strain MVC 70 (herpesvirus h simplex 0-2); details: solution of 0.02% w/v
HSV-1 [3] = details: in vitro
HSV-1 [4] = details: guinea pig model

For `[H]/N=C(\N/C(=N/[H])NCCCCCCNC(=N)NC(=N)Nc1ccc(Cl)cc1)Nc1ccc(Cl)cc1` [chlorhexidine], the “infectivity of HVH strain SUE (HSV-1)” value [1] is given as “reduced the infectivity” and the “infectivity of HVH strain MVC 70 (HSV-2)” value [2] is given as “reduced the infectivity”.

For `NC(CCC(=O)NC(CS)C(=O)NCC(=O)O)C(=O)O` (stereo not drawn) [GSH, 2-amino-5-{[2-[(carboxymethyl)amino]-1-(mercaptomethyl)-2-oxoethyl]amino}-5-oxopentanoic acid], the “inhibition of replication of HSV-1” value (HSV-1 [3]; addition of exogenous GSH) is listed as greater than 99% and the “intracellular GSH levels after virus challenge” value (HSV-1 [3]; addition of exogenous GSH to infected cells) is listed as “restore its intracellular levels almost up to those found in uninfected cells”.

For `Nc1nc2c(ncn2COCCO)c(=O)[nH]1` [Acyclovir], the viral titers (HSV-1 [4]) is listed as “reduced viral titers” and the “lesion development, duration and severity scores” value (HSV-1 [4]; compared to vehicle control or acyclovir) is listed as “did not reduce lesion development, duration or severity”.
